According to the supplement of paper PMC10307832:

Tests used:
Assay in all cases: relative viability (nuclei count vs DMSO), 5 days (fraction); higher = more cells survive
[1] = compound: C1=CC(=CC=C1NC(=S)NNC2=C(C=C(C=C2[N+](=O)[O-])C(F)(F)F)[N+](=O)[O-])F [Kobe2602] + CC(=O)c1c(C)c2cnc(Nc3ccc(N4CCNCC4)cn3)nc2n(C2CCCC2)c1=O [Palbociclib] (partner 0.5 µM)
Procedure, shortened: (§1)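 Each reported value is a median over duplicate plates. It expresses relative viability: treated-well nuclei count divided by vehicle-well nuclei count. Lung cancer cell lines in 1536-well plates were dosed by pin tool a day after seeding, alone with one drug or with a fixed anchor-drug dose plus five library-drug doses (not always all listed) in √10 steps, and nuclei were counted after 5 days.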

[2] = compound: O[C@@H](COc1cccc2ncccc12)CN1CCN([C@@H]2c3ccccc3[C@@H]3[C@H](c4ccccc42)C3(F)F)CC1 [Zosuquidar] + CC(=O)c1c(C)c2cnc(Nc3ccc(N4CCNCC4)cn3)nc2n(C2CCCC2)c1=O [Palbociclib] (partner 0.5 µM)
Procedure, shortened: as §1

[3] = compound: COc1cc2nccc(Oc3ccc(NC(=O)C4(C(=O)Nc5ccc(F)cc5)CC4)cc3)c2cc1OC [Cabozantinib] + Nc1ncn([C@H]2C[C@H](O)[C@@H](CO)O2)c(=O)n1 [Decitabine] (partner 2 µM)
Procedure, shortened: as §1

[4] = compound: COc1cc2nccc(Oc3ccc(NC(=O)C4(C(=O)Nc5ccc(F)cc5)CC4)cc3)c2cc1OC [Cabozantinib] + CCNC(=O)c1noc(-c2cc(C(C)C)c(O)cc2O)c1-c1ccc(CN2CCOCC2)cc1 [Luminespib] (partner 0.01 µM)
Procedure, shortened: as §1

UMC-11
relative viability ([1]; first compound 0.2 µM): 0.356
relative viability ([1]; first compound 0.6325 µM): 0.331
relative viability ([1]; first compound 2 µM): 0.347
relative viability ([1]; first compound 6.325 µM): 0.343
relative viability ([1]; first compound 20 µM): 0.345
relative viability ([2]; first compound 0.01 µM): 0.313
relative viability ([2]; first compound 0.03162 µM): 0.305
relative viability ([2]; first compound 0.1 µM): 0.338
relative viability ([2]; first compound 0.3162 µM): 0.341
relative viability ([2]; first compound 1 µM): 0.296
relative viability ([3]; first compound 0.02 µM): 0.654
relative viability ([3]; first compound 0.06325 µM): 0.597
relative viability ([3]; first compound 0.2 µM): 0.577
relative viability ([3]; first compound 0.6325 µM): 0.615
relative viability ([3]; first compound 2 µM): 0.554
relative viability ([4]; first compound 0.02 µM): 0.941
relative viability ([4]; first compound 0.06325 µM): 1.09
relative viability ([4]; first compound 0.2 µM): 1.1
relative viability ([4]; first compound 0.6325 µM): 1.09
relative viability ([4]; first compound 2 µM): 1.09
